Tests used:
[1] = Stability of various stannous compounds to air oxidation, one hour (Table XII); type: physicochemical; details: for Stannous Concentration Before Aeration: 98 ml saline containing 2 ml 1N HCl; for Stannous Concentration After Aeration / % Not Oxidized tin: air bubbled for one hour; for % Not Oxidized tin: 60 min
Method: Six salts of stannous compounds were each dissolved in 98 ml of saline containing 2 ml 1N HCl. The solutions were analyzed in order to measure the stannous ion concentration and then were subjected to oxidation conditions by bubbling air through the solutions for one hour. The solutions were analyzed again. […]

[2] = Stability of stannous compounds to air oxidation, 2.5 hours (Table XI); type: physicochemical; details: 40 ml saline and 1 ml 1N HCl
Method: Four salts of stannous compounds were each dissolved in a solution of 40 ml of saline and 1 ml of 1N HCl which was purged with nitrogen. The stannous concentration was measured and then the solution was subjected to oxidation conditions by bubbling air through the solution for 2.5 hours. The stannous concentration was again measured.

Compound	Stannous Concentration Before Aeration [1] [mg/mL]	Stannous Concentration After Aeration [1] [mg/mL]	% Not Oxidized tin [1] [%]	Stannous Concentration Before Aeration [2] [mg/mL]	Stability to air oxidation (in words) ([1]; one hour air)
[Cl][Sn][Cl] [Stannous Chloride, stannous chloride, reference compound]	0.138	0.085	61.6	9.3	–
O=C([O-])[C@H](O)[C@@H](O)C(=O)[O-].[Sn+2] [Stannous Tartrate, stannous tartrate]	0.247	0.213	86.2	18.0	more stable than stannous chloride with tartrate or citrate ion present

— US3987157A, “Technetium 99-M labeled radio-diagnostic agents employing stannous tartrate and method of preparation” (Union Carbide Corporation, priority 1974, dated 1976)
